Measured values from article PMC4980783 (Chemistry Central Journal, 2016).
Values joined by “and” are separate entries in the source; they are usually repeats but may differ in a detail not shown here. Equal entries are not always repeated. Where two headings read alike, the source gives them in different places.

Molecular target: influenza virus NA (Influenza A virus, UniProt Q6DPL2)
Type: biochemical
Details: single replicates (3)

influenza virus NA, sequence (Q6DPL2 whole entry, looked up): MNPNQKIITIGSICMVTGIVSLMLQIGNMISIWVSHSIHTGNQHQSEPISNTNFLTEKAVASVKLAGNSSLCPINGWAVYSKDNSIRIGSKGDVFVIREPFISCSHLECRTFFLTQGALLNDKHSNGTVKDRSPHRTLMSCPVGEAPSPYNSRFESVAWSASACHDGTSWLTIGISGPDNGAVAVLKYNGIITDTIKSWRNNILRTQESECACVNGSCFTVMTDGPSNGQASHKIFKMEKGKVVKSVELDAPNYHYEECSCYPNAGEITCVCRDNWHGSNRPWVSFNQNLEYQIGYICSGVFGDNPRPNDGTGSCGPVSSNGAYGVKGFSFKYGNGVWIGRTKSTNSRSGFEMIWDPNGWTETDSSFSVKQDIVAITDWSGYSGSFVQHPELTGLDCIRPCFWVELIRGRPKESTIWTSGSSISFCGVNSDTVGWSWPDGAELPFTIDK

CC(=O)N[C@H]1[C@H]([C@H](O)[C@H](O)CO)OC(C(=O)O)=C[C@@H]1N=C(N)N [Zanamivir, zanamivir]
inhibition rates (first line per compound): 100.00 and 99.40 and 99.96 | inhibition rates (second line per compound, presumably 5-fold diluted (Sheet1)): 44.04 and 41.05 | inhibition rates (third line per compound): 17.05 and 17.04 and 19.04
